Assay [1] deals with Coxsackievirus B3. Nature of the assay: Tested for its anti-polio activity against Coxsackie B virus type-3. The class given is functional, organism-based. The conditions noted are these: Enterovirus B.
Assay [2] relates to Vesicular stomatitis virus. Nature of the assay: Selectivity index as the ratio of CC50/EC50 against Vesicular stomatitis virus. It is filed as functional.
The test system of assay [3] is Coxsackievirus B3. Nature of the assay: Selectivity index as the ratio of CC50/EC50 against Coxsackie B virus type-3. The class given is functional.
In assay [4] the test system is Vesicular stomatitis virus. Kind of assay: Tested for its anti-polio activity against Vesicular stomatitis virus. The class given is functional, organism-based.

The structures appear in SMILES notation. Values after ≈ are worked out from the molar mass of the structure shown.

Take `CC(C)[C@H](NC(=O)OC(C)(C)C)c1cc(Cn2ccc(=O)n(C(=O)c3ccccc3)c2=O)on1`: the EC50 with Coxsackievirus B3 [1] was 98.1 µg/mL (≈ 209 µM); in assay [4] it was 80 µg/mL (≈ 171 µM). In addition, the figures for the Selectivity index (in assay [2]; in the assay with Coxsackievirus B3 [3]) were 1.25 and 1.02, respectively.

`Cc1cn(Cc2cc([C@H](Cc3ccccc3)NC(=O)OC(C)(C)C)no2)c(=O)n(C(=O)c2ccccc2)c1=O`: the EC50 was 10.6 µg/mL (≈ 20 µM) with Coxsackievirus B3 [1] and 7.94 µg/mL (≈ 15 µM) in assay [4]. The Selectivity index came to 3.29 in assay [2] and 2.46 in the assay with Coxsackievirus B3 [3].

Turning to `NC(=O)c1ncn([C@@H]2O[C@H](CO)[C@@H](O)[C@H]2O)n1` [RIBAVIRIN], the EC50 in the assay on Coxsackievirus B3 [1] amounted to 92.5 µg/mL (≈ 379 µM); in assay [4] it was 15.6 µg/mL (≈ 64 µM). Also, the Selectivity index in assay [2] is reported as 27.26; in the assay on Coxsackievirus B3 [3] it was 5.58.

These data come from ChEMBL document CHEMBL1135116, “Heterocyclic nucleoside analogues: design and synthesis of antiviral, modified nucleosides containing isoxazole heterocycles” (Bioorg Med Chem Lett, 2002).
